[invAb] = inverted abasic unit; m = 2'-O-methyl; r = 2'-OH (RNA); f = 2'-fluoro
What was measured:
NGFβ mRNA = NGFβ mRNA knock-down in Calu-1 cells (RNAiMax transfection, Taqman RT-PCR); assay type: cell-based, human; settings: for Primary Screen % KD (10 nM) / IC50 / Maximum % KD in DRC: human CaLu-1 cells; for Primary Screen % KD (10 nM): mean ± S.D. of four experiments; for IC50 / Maximum % KD in DRC: dose response 0.083fM to 30 nM, mean ± S.D.; for % KD in CaLu-1 Cells: human Calu-1 cells, 10 nM siNA, 24 hrs post-transfection, relative to non-targeting control, normalized to GAPDH
Procedure: Calu-1 (human; ATCC cat# HTB-54): Cells were cultured at 37° C. in the presence of 5% CO2 and grown in McCoy's 5a medium supplemented with fetal bovine serum at a final concentration of 10% and 100 μg/mL of streptomycin and 100 U/mL penicillin.
All transfections were performed using RNAiMax (Invitrogen Cat# 13778-150) as per the manufacturer's instructions.
Cells were plated in all wells of a tissue-culture treated, 96-well plate at a final count of 5,000 cells/well in […], of appropriate culture media. Cells were cultured for 24 hours after plating at 37° C. in the presence of 5% CO2.
After 24 hours, complexes containing siNA and RNAiMax were created as follows: A solution of RNAiMax diluted 33-fold in OPTI-MEM was prepared. In parallel, solutions of the siNAs for testing were prepared to a final concentration of 120 nM in OPTI-MEM. After incubation of RNAiMax/OPTI-MEM solution at room temperature for 5 min, an equal volume of the siRNA solution and the RNAiMax solution were added together for each of the siNAs.
This solution was incubated at room temperature for 20 minutes. After incubation, 20 uL of the solution was added to each of the relevant wells.
The final concentration of siNA in each well was 10 nM and the final volume of RNAiMax in each well was 0.3u1.
The time of incubation with the RNAiMax-siNA complexes was 24 hours, unless otherwise indicated. There was no change in media between the transfection and harvesting of the cells unless otherwise indicated.
Dose response curves were carried out in a similar fashion in 96-well plates, while maintaining a constant amount of RNAiMax in each transfection.
RNA was extracted from a 96-well plate using the TaqMan® Gene Expression Cells-to-CT™ Kit (Cat# 4399002) with a modified protocol. Briefly, a 60 uL (1 plate) or 110 uL (2 plates) of the Lysis Solution with DNase I was dispensed into each well of the Lysis Buffer Plate (twin.tec full skirt plate). The lysis buffer and stop plates were stored at 4° C. until the cells were washed.
The plate was spun at 1100 rpm for 5 minutes. The culture medium was aspirated and discarded from the wells of the culture plate. The lysis was performed automatically using a BioMek FX instrument and method. After the Biomek method was completed, the lysis plate was incubated for 2 min. at room temperature. The lysis plate can be stored for 2 hours at 4° C., or at −20° C. or −80° C. for two months.
Each well of the reverse transcription plate required 10 uL of 2× reverse transcriptase Buffer, luL of 20× reverse transcription enzyme and 2 uL of nuclease-free water. The reverse transcription master mix was prepared by mixing 2× reverse transcription buffer, 20× reverse transcription enzyme mix, and nuclease-free water. 13 uL of the reverse transcription master mix was dispensed into each well of the reverse transcription plate (semi-skirted). A separate reverse transcription plate was prepared for each cell plate. The plate was loaded onto a Biomek NX or Biomek FX Dual-96 and the Biomek method was run. The program is programmed to automatically added 7 uL of lysate from the cell lysis procedure described above into each well of the reverse transcription plate. The plate is sealed and spun on a centrifuge (1000 rpm for 30 seconds) to settle the contents to the bottom of the reverse transcription plate. The plate is placed in a thermocycler at 37° C. for 60 min, 95° C. for 5 min, and 4° C. until the plate is removed from the thermocycler. Upon removal, if not used immediately, the plate was frozen at −20° C.
A series of probes and primers were used to detect the various mRNA transcripts of the genes of NGFβ, BDNF and GAPDH in human cell lines. All the Taqman probes and primers for the experiments here-in described were supplied as pre-validated sets by Applied Biosystems, Inc. (see Table 3). The assays were performed on an ABI 7900 instrument, according to the manufacturer's instructions. […]

NGFβ protein = assay: NGFβ ELISA (protein knock-down in Calu-1 cells); assay type: cell-based, human; settings: for Max % Protein Reduction at 3 nM: 3 nM siNA, relative to negative universal control siNA (UC3); for IC50: 200 fM to 3 nM siNA, ELISA
Procedure: In a 96-well plate, 5,000 Calu-1cells/well were seeded in 100 uL of complete growth media and incubated overnight at 37° C. with 5% CO2. The cells were transfected with siNAs using RNAiMax (Invitrogen, Cat# 13778-150); final concentration of siNAs is 3e-09, le-09, 3e-10, le-10, 4e-11, le-11, 4e-12, le-12, 5e-13, and 2e-13 M. The amount of RNAiMax in each well is 0.3 uL. The siNAs were incubated for 24 hours. The medium was replaced with 100 uL of fresh complete growth medium. The cells were incubated for 48 hours. 80 uL of the medium from each well was collected into a separate 96-well plate. The samples were frozen immediately at −80° C. until ready the assay was ready to be performed.
ELISA was performed using NGF Emax® ImmunoAssay System (Promega, Cat # G7630) according to the manufaturer's instructions. The samples were diluted 1:2 with the blocking buffer provided in the kit. The samples absorbance was recorded at 450 nm on a SpectraMax plate reader (Molecular Devices) within 30 minutes of stopping the reaction.
Sigmaplot was used to determine IC50 values for each of the tested siRNAs using a sigmoidal dose response calculation. The maximum percentage of protein knock-down was determined by dividing the pg/mL at each treated siNA concentration by the pg/mL of the control treated cells at the same concentration of siNA. This number was then converted to a percentage to give the percent of protein remaining.
Various siNAs were also evaluated for their potential to knock-down NGFβ protein using an ELISA assay. Six siNAs were tested in an NGFβ ELISA assay across a range of concentrations of siNAs (200 fM to 3 nM) and the level of reduction of protein was determined relative to treatment of the cells with identical concentrations of the negative universal control siNA (UC3) (see Table 6).

NGF = target: T1, NGF (Homo sapiens, UniProt P01138); settings: 440 patients, moderate-severe OA knee pain, 100 or 200 mcg/kg; 26% of patients given placebo; cited from earlier work
T1 construct: host or cells: patients (in vivo)
T1 sequence (P01138 122-241): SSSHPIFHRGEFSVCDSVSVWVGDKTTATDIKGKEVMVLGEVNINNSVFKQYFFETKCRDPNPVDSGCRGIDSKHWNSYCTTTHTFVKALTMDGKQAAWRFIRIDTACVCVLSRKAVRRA

| Substance | Primary Screen % KD (10 nM) (NGFβ mRNA) [%] | IC50 (NGFβ mRNA) [pM] | Maximum % KD in DRC (NGFβ mRNA) [%] | % KD in CaLu-1 Cells (NGFβ mRNA) [%] | Max % Protein Reduction at 3 nM (NGFβ protein) [%] | IC50 (NGFβ protein) [pM] | patients with 50% decline in pain (NGF) |
| --- | --- | --- | --- | --- | --- | --- | --- |
| 25413-DC: siNA duplex, NGFβ target site 153; sense B cuGAGGuGcAuAGcGuAAu TTB (SEQ ID NO: 51), antisense AUUAcGcuAuGcAccucAGUU (SEQ ID NO: 52) (sense CUGAGGUGCAUAGCGUAAUTT; antisense AUUACGCUAUGCACCUCAGUU; sense: DNA at AGT, 2'-fluoro at CU, [invAb] at 5' end, 3' end, backbone not given here; antisense: sugars from the 5' end rrrmfmffmfmfmffffmmmm, backbone not given here) | 76 ± 6 | 38 ± 35 | 69 ± 8 | 68 | 77 | 253 |  |
| 25424-DC: siNA duplex, NGFβ target site 176; sense B AuGuuGuucuAcAcucuGA TTB (SEQ ID NO: 73), antisense UCAGAGuGuAGAAcAAcAuUU (SEQ ID NO: 74) (sense AUGUUGUUCUACACUCUGATT; antisense UCAGAGUGUAGAACAACAUUU; sense: DNA at AGT, 2'-fluoro at CU, [invAb] at 5' end, 3' end, backbone not given here; antisense: sugars from the 5' end rrrmmmfmfmmmmfmmfmfmm, backbone not given here) | 82 ± 9 | 50 ± 55 | 72 ± 5 | 78 | 85 | 108 |  |
| 25422-DC: siNA duplex, NGFβ target site 171; sense B uGuccAuGuuGuucuAcAc TTB (SEQ ID NO: 69), antisense GUGuAGAAcAAcAuGGAcAUU (SEQ ID NO: 70) (sense UGUCCAUGUUGUUCUACACTT; antisense GUGUAGAACAACAUGGACAUU; sense: DNA at AGT, 2'-fluoro at CU, [invAb] at 5' end, 3' end, backbone not given here; antisense: sugars from the 5' end rrrfmmmmfmmfmfmmmfmmm, backbone not given here) | 72 ± 11 | 60 ± 45 | 61 ± 9 | 72 | 77 | 395 |  |
| 25416-DC: siNA duplex, NGFβ target site 771; sense B GuAccAcGAcucAcAccuu TTB (SEQ ID NO: 57), antisense AAGGuGuGAGucGuGGuAcUU (SEQ ID NO: 58) (sense GUACCACGACUCACACCUUTT; antisense AAGGUGUGAGUCGUGGUACUU; sense: DNA at AGT, 2'-fluoro at CU, [invAb] at 5' end, 3' end, backbone not given here; antisense: sugars from the 5' end rrrmfmfmmmffmfmmfmfmm, backbone not given here) | 80 ± 3 | 35 ± 33 | 61 ± 7 | 69 | 89 | 96 |  |
| Tanezumab |  |  |  |  |  |  | approximately 75% |
| 25425-DC: siNA duplex, NGFβ target site 181; sense B GuucuAcAcucuGAucAcA TTB (SEQ ID NO: 75), antisense UGUGAucAGAGuGuAGAAcUU (SEQ ID NO: 76) (sense GUUCUACACUCUGAUCACATT; antisense UGUGAUCAGAGUGUAGAACUU; sense: DNA at AGT, 2'-fluoro at CU, [invAb] at 5' end, 3' end, backbone not given here; antisense: sugars from the 5' end rrrmmffmmmmfmfmmmmfmm, backbone not given here) | 83 ± 6 | 20 ± 19 | 72 ± 1 | 80 | 87 | 74 |  |
| 25417-DC: siNA duplex, NGFβ target site 655; sense B GGuGAAcAuuAAcAAcAGu TTB (SEQ ID NO: 59), antisense ACUGuuGuuAAuGuucAccUU (SEQ ID NO: 60) (sense GGUGAACAUUAACAACAGUTT; antisense ACUGUUGUUAAUGUUCACCUU; sense: DNA at AGT, 2'-fluoro at CU, [invAb] at 5' end, 3' end, backbone not given here; antisense: sugars from the 5' end rrrmffmffmmfmfffmffmm, backbone not given here) | 71 ± 2 | 71 ± 46 | 61 ± 2 | 68 | 77 | 303 |  |
